Measured values reported in patent US20230000936A1, “A[…] ITCHING […] C[…]” (Demetrix, Inc., priority 2021, published 2023).
Entries after “also recorded” stand apart in the source; their conditions may differ.

Key:
Assay type in all cases: cell-based
CHRM2 [1] = target: T1, CHRM2 (Homo sapiens, UniProt P08172); test: GPCR reactivity screen, PathHunter β-Arrestin, agonist assay CHRM2; design: concentration or dose not given beside the values; conditions: agonist mode; control acetylcholine
T1 sequence (P08172 1-466): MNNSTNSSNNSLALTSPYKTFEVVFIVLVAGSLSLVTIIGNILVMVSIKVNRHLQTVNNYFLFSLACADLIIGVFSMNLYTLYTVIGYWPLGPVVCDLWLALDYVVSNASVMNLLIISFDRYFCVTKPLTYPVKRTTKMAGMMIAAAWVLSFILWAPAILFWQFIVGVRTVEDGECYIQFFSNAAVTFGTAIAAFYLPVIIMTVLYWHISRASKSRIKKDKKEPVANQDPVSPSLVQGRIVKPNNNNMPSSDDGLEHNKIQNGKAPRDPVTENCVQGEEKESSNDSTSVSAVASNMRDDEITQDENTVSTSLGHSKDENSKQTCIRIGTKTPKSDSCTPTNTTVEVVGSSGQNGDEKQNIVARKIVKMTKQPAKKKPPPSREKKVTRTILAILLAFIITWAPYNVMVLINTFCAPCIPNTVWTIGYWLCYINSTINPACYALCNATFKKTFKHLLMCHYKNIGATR
Protocol: (§1) To evaluate the role specific cannabinoid compounds play in the neurological signaling pathway for itching, a GPCR reactivity assay was performed to determine the reactivity of 19 cannabinoid compounds to each of CHRM2, EDG3, and MRGPRX2. The evaluated cannabinoid compounds were: CBN, THCV, CBDVA, CBG, CBL, CBC, CBDV, CBDA, CBD, CBGA, (+)-CBD, CBG-C4, CBD-C1, CBD-C2, CBGV, CBGA-C4, CBGVA, CBCA, and CBLA. Acetylcholine was used as the control for CHRM2, sphingosine-1-phosphate was used as the control for EDG3; and cortistatin 14 was used as the control for MRGPRX2.
(§2) A total of six assays were run. Specifically, agonist and antagonist assays were run for each of CHRM2, EDG3, and MRGPRX2. In each of the three agonist assays, PathHunter® cell lines were removed from a freezer stock and seeded at a volume of 20 μL into white walled, 384-well microplates and incubated at 37° C. Each cell was incubated with a sample to induce a response and then diluted to generate a 5× sample in assay buffer. 5 μL of the 5× sample was then added to cells and incubated at 37° C. for 90 or 180 minutes. The final assay concentration was 1%. The assay signal was generated through addition of 12.5 μL or 15 μL (50% V/V) of a detection reagent cocktail followed by a one hour incubation time at room temperature. Microplates were read following signal generation with a PerkinElmer Envision™ (PerkinElmer Inc., Waltham, Mass.) for chemiluminescent signal detection. Reactivity was analyzed using the CBIS data analysis suite (ChemInnovation, CA) where RLU refers to the raw measured values. The percent activity was then calculated using the formula: % Activity=100%*(mean RLU of test sample−mean RLU of control)/(mean max control ligand−mean RLU of vehicle control).
(§3) As used herein, strong activity against a receptor is considered a percent activity of about 42% or higher. Higher results for antagonism against CHRM2, EDGE, and MRGPRX2 are considered better. It is further considered better when a cannabinoid inhibits more than one of the receptors.

EDG3 [2] = target: T2, EDG3 (Homo sapiens, UniProt Q99500); test: GPCR reactivity screen, PathHunter β-Arrestin, antagonist assay EDG3; conditions: for antagonist activity against EDG3 (in words): GPCR reactivity screen; for EDG3 (Antagonist) percent inhibition: antagonist mode, agonist challenge at EC80
T2 sequence (Q99500 whole entry): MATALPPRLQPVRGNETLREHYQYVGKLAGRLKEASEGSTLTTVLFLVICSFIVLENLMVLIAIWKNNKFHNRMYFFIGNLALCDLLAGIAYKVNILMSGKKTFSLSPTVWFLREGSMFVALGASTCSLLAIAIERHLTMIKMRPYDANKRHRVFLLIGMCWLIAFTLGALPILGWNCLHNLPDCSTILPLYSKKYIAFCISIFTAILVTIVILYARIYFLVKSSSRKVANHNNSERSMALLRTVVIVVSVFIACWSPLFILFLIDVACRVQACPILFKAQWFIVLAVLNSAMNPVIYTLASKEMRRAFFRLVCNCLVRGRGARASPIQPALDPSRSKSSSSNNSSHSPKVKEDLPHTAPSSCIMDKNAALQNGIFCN
Protocol: as §1
(§4) In each of the antagonist assays, PathHunter® cell lines were removed from a freezer stock and seeded at a volume of 20 μL into white walled, 384-well microplates and incubated at 37° C. Each cell was pre-incubated with an antagonist followed by an agonist challenge at the EC80 concentration. Cells were then diluted to generate a 5× sample in assay buffer. 5 μL of the 5× sample was then added to cells and incubated at 37° C. for 30 minutes. Finally, 5 μL of 6×EC80 agonist in assay buffer were added to the cells and incubated at 37° C. for 90 minutes or 180 minutes. The assay signal was generated through addition of 12.5 μL or 15 μL (50% V/V) of a detection reagent cocktail followed by a one hour incubation time at room temperature. Microplates were read following signal generation with a PerkinElmer Envision™ (PerkinElmer Inc., Waltham, Mass.) for chemiluminescent signal detection. Reactivity was analyzed using the CBIS data analysis suite (ChemInnovation, CA) where RLU refers to the raw measured values. The percent inhibition was calculated using the formula: % Inhibition=100%*(1−mean RLU of test sample−mean RLU of control)/(mean RLU of EC80 control−mean RLU of vehicle control).
as §3

MRGPRX2 [3] = target: T3, MRGPRX2 (Homo sapiens, UniProt Q96LB1); test: GPCR reactivity screen, PathHunter β-Arrestin, agonist assay MRGPRX2; conditions: agonist mode; control cortistatin 14
T3 sequence (Q96LB1 1-330): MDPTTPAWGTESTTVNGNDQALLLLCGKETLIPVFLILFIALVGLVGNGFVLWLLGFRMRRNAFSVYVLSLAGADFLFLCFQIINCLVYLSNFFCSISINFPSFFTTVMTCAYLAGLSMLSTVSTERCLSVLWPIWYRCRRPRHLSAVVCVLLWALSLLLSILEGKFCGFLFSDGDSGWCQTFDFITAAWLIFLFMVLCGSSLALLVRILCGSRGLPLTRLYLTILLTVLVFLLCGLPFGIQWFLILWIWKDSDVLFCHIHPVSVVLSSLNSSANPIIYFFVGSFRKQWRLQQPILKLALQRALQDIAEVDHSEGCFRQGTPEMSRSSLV
Protocol: as §1, §2, §3

CHRM2 [4] = target: T1, CHRM2; test: GPCR reactivity screen, PathHunter β-Arrestin, antagonist assay CHRM2; conditions: for antagonist activity against CHRM2 (in words): GPCR reactivity screen; for CHRM2 (Antagonist) percent inhibition: antagonist mode, agonist challenge at EC80
Protocol: as §1, §4, §3

MRGPRX2 [5] = target: T3, MRGPRX2; test: GPCR reactivity screen, PathHunter β-Arrestin, antagonist assay MRGPRX2; conditions: for antagonist activity against MRGPRX2 (in words): GPCR reactivity screen; for MRGPRX2 (Antagonist) percent inhibition: antagonist mode, agonist challenge at EC80
Protocol: as §1, §4, §3

EDG3 [6] = target: T2, EDG3; test: GPCR reactivity screen, PathHunter β-Arrestin, agonist assay EDG3; design: concentration or dose not given beside the values; conditions: agonist mode; control sphingosine-1-phosphate
Protocol: as §1, §2, §3

MRGPRX2 [7] = target: T3, MRGPRX2; test: IC50 antagonist activity screen, PathHunter β-Arrestin, MRGPRX2; conditions: maximum of IC50 curve
Protocol: as §4
IC50 curves were measured using the same GPCR assay, PathHunter® β-Arrestin from Eurofins DiscoverX Products (Fremont, Calif.), as the GPCR reactivity screen. As used herein, strong activity against a receptor is considered a maximum activity of about 42% or higher. Higher results for antagonism against CHRM2, EDGE, and MRGPRX2 are considered better. It is further considered better when a cannabinoid inhibits more than one of the receptors.

Compound	CHRM2 (Agonist) percent activity (CHRM2 [1])	antagonist activity against EDG3 (in words) (EDG3 [2])	EDG3 (Antagonist) percent inhibition (EDG3 [2])	MRGPRX2 (Agonist) percent activity (MRGPRX2 [3])	antagonist activity against CHRM2 (in words) (CHRM2 [4])	CHRM2 (Antagonist) percent inhibition (CHRM2 [4])	antagonist activity against MRGPRX2 (in words) (MRGPRX2 [5])	MRGPRX2 (Antagonist) percent inhibition (MRGPRX2 [5])	EDG3 (Agonist) percent activity (EDG3 [6])	maximum inhibition (antagonism) MRGPRX2 (MRGPRX2 [7])
C=C(C)[C@@H]1CCC(C)=C[C@H]1c1c(O)cc(C)cc1O [CBD-C1, cannabidiorcol]	−1%	do not exhibit an antagonistic effect; also recorded: did not exhibit antagonistic effects	13%	1%	do not exhibit an antagonistic effect; also recorded: did not exhibit antagonistic effects	2%	do not exhibit an antagonistic effect; also recorded: did not exhibit antagonistic effects	12%	1%	–
C=C(C)[C@@H]1CCC(C)=C[C@H]1c1c(O)cc(CC)cc1O [CBD-C2, cannabidol-C2]	1%	do not exhibit an antagonistic effect; also recorded: did not exhibit antagonistic effects	20%	1%	do not exhibit an antagonistic effect; also recorded: did not exhibit antagonistic effects	21%	do not exhibit an antagonistic effect; also recorded: did not exhibit antagonistic effects	31%	1%	43%
C=C(C)[C@@H]1CCC(C)=C[C@H]1c1c(O)cc(CCCCC)c(C(=O)O)c1O [CBDA, cannabidiolic acid]	1%	do not exhibit an antagonistic effect	5%	4%	do not exhibit an antagonistic effect	−10%	do not exhibit an antagonistic effect	8%	−1%	–
C=C(C)[C@@H]1CCC(C)=C[C@H]1c1c(O)cc(CCC)c(C(=O)O)c1O [CBDVA, cannabidivarinic acid]	2%	do not exhibit an antagonistic effect	13%	5%	do not exhibit an antagonistic effect	2%	do not exhibit an antagonistic effect	−8%	−3%	–
CCCCc1cc(O)c(CC=C(C)CCC=C(C)C)c(O)c1 [CBG-C4, cannabigerol butyl]	0%	–	28%	3%	–	13%	antagonist activity	94%	3%	85%
CCCCCc1cc(O)c(C/C=C(\C)CCC=C(C)C)c(O)c1C(=O)O [CBGA, cannabigerolic acid]	−3%	do not exhibit an antagonistic effect	12%	0%	do not exhibit an antagonistic effect	12%	do not exhibit an antagonistic effect	17%	2%	–
CCCCc1cc(O)c(C/C=C(\C)CCC=C(C)C)c(O)c1C(=O)O [CBGA-C4, cannabigerolic acid butyl]	−4%	do not exhibit an antagonistic effect	16%	−1%	do not exhibit an antagonistic effect	19%	do not exhibit an antagonistic effect	20%	0%	–
CCCc1cc(O)c(C/C=C(\C)CCC=C(C)C)c(O)c1C(=O)O [CBGVA, cannabigerovarinic acid]	−4%	do not exhibit an antagonistic effect	9%	−1%	do not exhibit an antagonistic effect	23%	do not exhibit an antagonistic effect	7%	−1%	–
